Measured values taken from US9119874B2, “Cell-penetrating markers of apoptosis” (TRUSTEES OF BOSTON COLLEGE, priority 2012, dated 2015).

Test system: Jurkat cells
Assay: Confocal microscopy of stained Jurkat cells with and without CPT treatment
Type: cell-based
Source text: FIGS. 5A-5D are confocal microscopy images of F1-EA staining Jurkat cell samples without the washing step. FIGS. 5A and 5C display the FITC channel; FIGS. 5B and 5D display the phase contrast channel.
FIGS. 6A-6D are micrographs depicting representative confocal images.
FIGS. 8A-8D are a series of micrographs depicting confocal microscopy images of Rhodamine B and Rd-EA staining Jurkat cell samples. FIGS. 8A and 8B show Rhodamine B stained cells while FIGS. 8C and 8D show Rd-EA stained cells. FIGS. 8A and 8C are CPT treated cells while
The specificity of F1-EA for apoptotic cells were further validated through a costaining experiment with the R-phycoerythrin labeled annexin V (AV-PE, yellow emission). […] The flow cytometry result was further validated with confocal microscopy analysis.

Molecule	selectivity of staining for apoptotic cells (confocal images, CPT-treated vs untreated Jurkat cells)	location of the stain in CPT-treated cells (confocal image, CPT-treated Jurkat cells)
CCN(CC)c1ccc2c(-c3ccccc3C(=O)O)c3ccc(=[N+](CC)CC)cc-3oc2c1.[Cl-] [Rhodamine B]	no selectivity	–
AV-PE: R-phycoerythrin labeled annexin V (protein, UniProt P08758 2-320, looked up, R-phycoerythrin label, R-phycoerythrin labeled annexin V) Annexin A5: AQVLRGTVTDFPGFDERADAETLRKAMKGLGTDEESILTLLTSRSNAQRQEISAAFKTLFGRDLLDDLKSELTGKFEKLIVALMKPSRLYDAYELKHALKGAGTNEKVLTEIIASRTPEELRAIKQVYEEEYGSSLEDDVVGDTSGYYQRMLVVLLQANRDPDAGIDEAQVEQDAQALFQAGELKWGTDEEKFITIFGTRSVSHLRKVFDKYMTISGFQIEETIDRETSGNLEQLLLAVVKSIRSIPAYLAETLYYAMKGAGTDDHTLIRVMVSRSEIDLFNIRKEFRKNFATSLYSMIKGDTSGDYKKALLLLCGEDD	–	membrane location
